The values below come from patent US20240391940A1, “FUSED RING-CONTAINING COMPOUND, APPLICATION THEREOF, AND COMPOSITION CONTAINING SAME” (GenEros Biopharma Ltd., priority 2020, published 2024).

As usually defined, the AUC(0-t) is the area under the concentration-time curve up to a stated or last time point. As usually defined, the half-life is the time needed for the level to fall by half in the phase considered. A higher half-life goes with slow decline. What is called bioavailability is the share of a dose that reaches the circulation, judged against a reference dose that is usually intravenous. The low end stands for little systemic uptake, the high end for much systemic uptake. As usually defined, the Cmax is the highest concentration seen after dosing. Broadly, the Tmax is the time at which the peak concentration occurs. For orientation: IC50 means the concentration that inhibits the measured activity by half. A higher IC50 goes with weaker potency.

In data set [1] the test system is STAT5 Y694 phosphorylation. In words: HTRF experiment: STAT5 Y694 phosphorylation in Hela cells. The data set is classed as cell-based, Human. The settings on record: for Inhibition rate @10 μM: 10 μM compound, 2 h pretreatment, interferon stimulation 30 min. The protocol: A multifunctional microplate reader (TECAN; […] F PLEX); 96-well cell culture plates (Bioyong), HTRF 384-well low volume plates (Cisbio; Cat #66PL384025); Human interferon 0 (IFN-0) (GenScript; Cat #P01574), STAT5 phospho-Y694 kits (Cisbio; Cat #64AT5PEG).
Hela cells (American Type Culture Collection (ATCC), CCL-2) were cultured in a 96-well plate with DMEM containing 5% fetal bovine serum at a density of 3×10^4 cells/well. The cells were incubated overnight in a 37° C., 5% carbon dioxide humidified incubator. The next day, the original DMEM in the 96-well plate was blotted, and equal volumes of medium containing different concentrations of compounds (stock solutions of compounds prepared with dimethyl sulfoxide were diluted to desired concentrations in medium) were added for 2 h of pretreatment. The plate was left to stand in a 37° C. incubator. Human interferon 0 was then added to a final concentration of 10 nM for stimulation. The plate was gently shaken so the contents were well mixed, and the plate was then left to stand in a 37° C. incubator for 30 min.
The medium was removed, and the plate was washed once with an appropriate volume of PBS and then blotted dry. Then 1×lysis buffer was added at 40 μL/well, and the plate was left to stand at room temperature for 30 min (preparation of 1 mL of 1× lysis buffer: mixing well 740 μL of ddH2O with 250 μL of 4× lysis buffer and […]). After 30 min, the cells were repeatedly pipetted until the lysis buffer was not viscous (bubbles were avoided) so that sufficient lysis was achieved.
In an HTRF 384-well low volume plate, 4 μL of an antibody premix (containing two antibodies: Cryptate and d2: the two antibodies were each 20-fold diluted with detection buffer and were then mixed in equal volume to form the antibody premix) and 16 μL of the cell lysate were added to each well. The plate was sealed with a sealing membrane and then incubated overnight at room temperature in a dark place.
After the overnight incubation, signals at 665 nm and 620 nm were detected separately on a multifunctional microplate reader. The calculation formula for the STAT5 Y694 phosphorylation assay is: Ratio=[(signal 665 nm)/(signal 620 nm)]×10^4. A dimethyl sulfoxide-only treatment group was set as a negative control (RatioNegative), and an interferon 0 stimulation group without compound addition was set as a positive control (RatioPositive). The inhibition rates of different samples against STAT5 Y694 phosphorylation were normalized: inhibition rate=[1−(RatioExperiment−RatioNegative)/(RatioPositive−RatioNegative)]×100.
For orientation: TR-FRET usually uses a lanthanide donor and a delayed reading to cut background.

Data set [2] in a line: PK profile in SD rats (i.v. / oral gavage, plasma LC-MS). The data set is classed as in vivo. The settings on record: female, rat; for Vd: read-out: Vdss. An excerpt: (§1) Method: SD rats from acceptable sources (N=3, female, 6-8 weeks, weighing 200-230 g, purchased from JH Laboratory Animal Co. LTD, SCXK (SH) 2017-0012 20170012001153) or beagles (N=3, not experimentally naive animals, female, weighing 6.55-8.62 kg, purchased from Beijing Marshall Biotech Co. Ltd., quality inspection number SCXK (BJ) 2016-0001 110318201100068072) were selected and administered, by intravenous injection or oral gavage (3 animals per route), corresponding doses of the test compound GEN1-117 or GEN1-284s (the sample for intravenous injection was dissolved in a solution of 10% DMSO, 10% Soltol HS15 and 80% PBS, and the sample for oral administration was dissolved in a 0.5% aqueous methylcellulose solution). Peripheral blood samples (150 μL) were taken (at 0, 0.083, 0.25, 0.5, 1, 2, 4, 8 and 24 h for the intravenous injection route; at 0, 0.25, 0.5, 1, 2, 4, 8 and 24 h for the oral injection route; into K2-EDTA anticoagulant tubes; centrifuged at 2000 g at 4 C for 5 min within 15 min), and plasma was separated and subjected to LC-MS analysis (LC-MS/MS-37, triple Quad 6500) using the conventional method with diclofenac as an internal standard. Mass spectrometry conditions: ESI cation, MRM detection:
(§2) HPLC conditions: mobile phase A: 0.1% FA in water, mobile phase B: 0.1% FA in ACN
(§3) Chromatography column: Waters ACQUITY UPLC HSS T3 (2.1×50 mm, 1.8 μm)
(§4) A test sample standard curve was prepared from 1, 2, 10, 30, 100, 300, 1000, 2700 and 3000 ng/mL (50% ACN in water), and 3 μL of standard-curve solution was mixed with 57 μL of same-species blank plasma. A test plasma sample (60 μL) was well mixed with 6 μL of 10% FA in water, and 30 μL of the mixture was taken and well mixed with 200 μL of the internal standard compound diclofenac (40 ng/mL in ACN). After the resulting mixture was vortexed and shaken for 1 min and centrifuged at 5800 rpm for 10 min, 100 μL of the supernatant was transferred to a new test plate, and 1 μL of solution was loaded on an LC-MS/MS system.

Data set [3] in a line: PK profile in beagles (i.v. / oral gavage, plasma LC-MS). The data set is classed as in vivo. The settings on record: female, beagle, dog, analyte = labelled compound.
Text: as §1, §2, §3, §4

[4] abbreviates: iv, 1 mg/kg, GEN1-117 dosed i.v. 1 mg/kg.
Where [5] appears, read: iv, 1 mg/kg, GEN1-284s dosed i.v. 1 mg/kg, analyte = labelled compound.
Setting [6] is: iv, GEN1-117 dosed i.v. 1 mg/kg.
Where [7] appears, read: po, 10 mg/kg, GEN1-117 dosed p.o. 10 mg/kg.
Where [8] appears, read: po, 10 mg/kg, GEN1-284s dosed p.o. 10 mg/kg, analyte = labelled compound.
Where [9] appears, read: po, GEN1-284s dosed p.o. 10 mg/kg, analyte = labelled compound.
Setting [10] is: iv, GEN1-284s dosed i.v. 0.5 mg/kg.
Where [11] appears, read: po, GEN1-284s dosed p.o. 5 mg/kg.
Where [12] appears, read: iv, GEN1-284s dosed i.v. 1 mg/kg, analyte = labelled compound.

The structures appear in SMILES notation.

Consider `O=C(Cc1ccc2ncccc2c1)N1CCC(n2c(=O)[nH]c3cccc(C(F)(F)F)c32)CC1` [GEN1-117, 1-(1-(2-(Quinolin-6-yl)acetyl)piperidin-4-yl)-7-(trifluoromethyl)-1H-benzo[d]imidazol-2(3H)-one], for which the “Inhibition rate @10 μM” value in data set [1] was 89.31%. Besides, the AUC(0-t) was 1640 ng·h/mL in data set [2] (setting [4]); 1510 ng·h/mL in data set [2] (setting [5]); 423 ng·h/mL in data set [2] (setting [7]); 14600 ng·h/mL in data set [2] (setting [8]); 2000 ng·h/mL in data set [3] (setting [10]); 17900 ng·h/mL in data set [3] (setting [11]). The half-life in data set [2] (setting [4]) was 4.2 h; in data set [2] (setting [5]), 4.16 h; in data set [2] (setting [7]), 4.28 h; in data set [2] (setting [8]), 3.82 h; in data set [3] (setting [10]) it was 4.06 h; in data set [3] (setting [11]) it was 4.18 h. In data set [2] (setting [6]), this compound had a clearance of 10.3 mL/min/kg. In addition, the Vd in data set [2] (setting [6]) stood at 2.75 L/kg. The bioavailability in data set [2] (oral, GEN1-117 dosed p.o. 10 mg/kg vs i.v. 1 mg/kg) amounted to 2.6%; in data set [2] (setting [9]), 96.3%; in data set [3] (setting [11]) it was 89.8%. The Cmax in data set [2] (setting [7]) was 42.8 ng/mL; in data set [2] (setting [8]) it was 2440 ng/mL; in data set [3] (setting [11]), 2770 ng/mL. The Tmax in data set [2] (setting [7]) is 4 h; in data set [2] (setting [8]), 2 h; in data set [3] (setting [11]), 1.33 h.

With `O=C(Cc1ccc2ncccc2c1)N1CCC(n2c(=O)n(COP(=O)([O-])[O-])c3cccc(C(F)(F)F)c32)CC1.[Na+].[Na+]` [GEN1-284 salt, (2-Oxo-3-(1-(2-(quinolin-6-yl)acetyl)piperidin-4-yl)-4-(trifluoromethyl)-2,3-dihydro-1H-benzo[d]imidazol-1-yl)methyl disodium phosphate], in data set [1], the IC50 stood at 2.6 µM and the “Inhibition rate @10 μM” value is 82.46%. Besides, in data set [2] (setting [12]), the AUC(0-t) was 2750 ng·h/mL, the clearance was 6.23 mL/min/kg, the half-life was 0.39 h and the Vd was found to be 0.047 L/kg. The Tmax in data set [2] (setting [8]) turned out to be 0.42 h. In data set [2] (setting [9]), this compound gave an AUC(0-t) of 5.72 ng·h/mL, a Cmax of 6.04 ng/mL and a half-life of 0.95 h. In addition, in data set [3] (setting [10]), the AUC(0-t) worked out at 207 ng·h/mL, the clearance was 43.5 mL/min/kg and the half-life is 0.085 h. Besides, the Vd in data set [3] (iv, GEN1-284s dosed i.v. 0.5 mg/kg, read-out: Vdss) is 0.155 L/kg.
